# Results from PubChem BioAssay (NCI).
#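 Results reflect a 48-hour exposure of cells in 96-well plates to compound at five concentrations. The concentration for 50% growth inhibition is given as GI50. The concentration for full growth arrest is given as TGI.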
# Experiments:
# Assay in all cases: NCI tumour cell line growth inhibition, 48 h
# HS 578T breast = test system: HS 578T breast
# HOP-62 NSCLC = test system: HOP-62 NSCLC
# MOLT-4 leukemia = test system: MOLT-4 leukemia
# ACHN renal = test system: ACHN renal
# SF-539 CNS = test system: SF-539 CNS
# SF-295 CNS = test system: SF-295 CNS
# IGROV1 ovarian = test system: IGROV1 ovarian
# CCRF-CEM leukemia = test system: CCRF-CEM leukemia
# SF-268 CNS = test system: SF-268 CNS
# HCC-2998 colon = test system: HCC-2998 colon
# NCI-H226 lung = test system: NCI-H226 lung
# MDA-MB-231 breast = test system: MDA-MB-231 breast
# RXF 393 renal = test system: RXF 393 renal
# BT-549 breast = test system: BT-549 breast
# T-47D breast = test system: T-47D breast
# MALME-3M melanoma = test system: MALME-3M melanoma
# U251 CNS = test system: U251 CNS
# MCF7 breast = test system: MCF7 breast
# A498 renal = test system: A498 renal
# CAKI-1 renal = test system: CAKI-1 renal
# SK-MEL-28 melanoma = test system: SK-MEL-28 melanoma
# HOP-92 NSCLC = test system: HOP-92 NSCLC
# SR leukemia = test system: SR leukemia
# KM12 colon = test system: KM12 colon
# HCT-15 colon = test system: HCT-15 colon
# HCT-116 colon = test system: HCT-116 colon
# NCI/ADR-RES ovarian = test system: NCI/ADR-RES ovarian
# 786-0 renal = test system: 786-0 renal
# PC-3 prostate = test system: PC-3 prostate
# TK-10 renal = test system: TK-10 renal
# SK-OV-3 ovarian = test system: SK-OV-3 ovarian
# RPMI-8226 leukemia = test system: RPMI-8226 leukemia
# OVCAR-8 ovarian = test system: OVCAR-8 ovarian
# UACC-62 melanoma = test system: UACC-62 melanoma
# MDA-MB-468 breast = test system: MDA-MB-468 breast
# OVCAR-4 ovarian = test system: OVCAR-4 ovarian
# OVCAR-5 ovarian = test system: OVCAR-5 ovarian
# NCI-H522 lung = test system: NCI-H522 lung
# NCI-H460 lung = test system: NCI-H460 lung
# SNB-19 CNS = test system: SNB-19 CNS
# UO-31 renal = test system: UO-31 renal
# MDA-MB-435 = test system: MDA-MB-435
# LOX IMVI melanoma = test system: LOX IMVI melanoma
# UACC-257 melanoma = test system: UACC-257 melanoma
# NCI-H23 lung = test system: NCI-H23 lung
# SN12C renal = test system: SN12C renal
# DU-145 prostate = test system: DU-145 prostate
# K-562 leukemia = test system: K-562 leukemia
# M14 melanoma = test system: M14 melanoma
# OVCAR-3 ovarian = test system: OVCAR-3 ovarian
# COLO 205 colon = test system: COLO 205 colon
# SK-MEL-5 melanoma = test system: SK-MEL-5 melanoma
# EKVX NSCLC = test system: EKVX NSCLC
# A549 NSCLC = test system: A549 NSCLC
# SW-620 colon = test system: SW-620 colon
# HL-60(TB) leukemia = test system: HL-60(TB) leukemia
# HT29 colon = test system: HT29 colon
smiles,measurement,setting,value
O=C(Nc1ccc(C(F)(F)F)cc1)Nc1ccc2oc(=O)ccc2c1,GI50,HS 578T breast,16.7 µM
same,TGI,HS 578T breast,> 100 µM
same,GI50,HOP-62 NSCLC,9.77 µM
same,TGI,HOP-62 NSCLC,> 100 µM
same,GI50,MOLT-4 leukemia,2.86 µM
same,TGI,MOLT-4 leukemia,> 100 µM
same,GI50,ACHN renal,2.7 µM
same,TGI,ACHN renal,> 100 µM
same,GI50,SF-539 CNS,5.81 µM
same,TGI,SF-539 CNS,> 100 µM
same,GI50,SF-295 CNS,2.63 µM
same,TGI,SF-295 CNS,> 100 µM
same,GI50,IGROV1 ovarian,3.55 µM
same,TGI,IGROV1 ovarian,> 100 µM
same,GI50,CCRF-CEM leukemia,3.2 µM
same,TGI,CCRF-CEM leukemia,> 100 µM
same,GI50,SF-268 CNS,18.6 µM
same,TGI,SF-268 CNS,> 100 µM
same,GI50,HCC-2998 colon,3.51 µM
same,TGI,HCC-2998 colon,> 100 µM
same,GI50,NCI-H226 lung,3.67 µM
same,TGI,NCI-H226 lung,> 100 µM
same,GI50,MDA-MB-231 breast,11.7 µM
same,TGI,MDA-MB-231 breast,> 100 µM
same,GI50,RXF 393 renal,18.2 µM
same,TGI,RXF 393 renal,> 100 µM
same,GI50,BT-549 breast,3.4 µM
same,TGI,BT-549 breast,> 100 µM
same,GI50,T-47D breast,2.85 µM
same,TGI,T-47D breast,> 100 µM
same,GI50,MALME-3M melanoma,4.87 µM
same,TGI,MALME-3M melanoma,> 100 µM
same,GI50,U251 CNS,4.34 µM
same,TGI,U251 CNS,> 100 µM
same,GI50,MCF7 breast,2.48 µM
same,TGI,MCF7 breast,> 100 µM
same,GI50,A498 renal,> 100 µM
same,TGI,A498 renal,> 100 µM
same,GI50,CAKI-1 renal,2.58 µM
same,TGI,CAKI-1 renal,> 100 µM
same,GI50,SK-MEL-28 melanoma,> 100 µM
same,TGI,SK-MEL-28 melanoma,> 100 µM
same,GI50,HOP-92 NSCLC,1.49 µM
same,TGI,HOP-92 NSCLC,5.73 µM
same,GI50,SR leukemia,3.86 µM
same,TGI,SR leukemia,> 100 µM
same,GI50,KM12 colon,3.51 µM
same,TGI,KM12 colon,> 100 µM
same,GI50,HCT-15 colon,2.91 µM
same,TGI,HCT-15 colon,> 100 µM
same,GI50,HCT-116 colon,2.95 µM
same,TGI,HCT-116 colon,> 100 µM
same,GI50,NCI/ADR-RES ovarian,3.86 µM
same,TGI,NCI/ADR-RES ovarian,> 100 µM
same,GI50,786-0 renal,19.3 µM
same,TGI,786-0 renal,> 100 µM
same,GI50,PC-3 prostate,2.34 µM
same,TGI,PC-3 prostate,> 100 µM
same,GI50,TK-10 renal,> 100 µM
same,TGI,TK-10 renal,> 100 µM
same,GI50,SK-OV-3 ovarian,91.4 µM
same,TGI,SK-OV-3 ovarian,> 100 µM
same,GI50,RPMI-8226 leukemia,2.04 µM
same,TGI,RPMI-8226 leukemia,5.87 µM
same,GI50,OVCAR-8 ovarian,5.93 µM
same,TGI,OVCAR-8 ovarian,> 100 µM
same,GI50,UACC-62 melanoma,5.76 µM
same,TGI,UACC-62 melanoma,> 100 µM
same,GI50,MDA-MB-468 breast,2.97 µM
same,TGI,MDA-MB-468 breast,> 100 µM
same,GI50,OVCAR-4 ovarian,5.4 µM
same,TGI,OVCAR-4 ovarian,> 100 µM
same,GI50,OVCAR-5 ovarian,> 100 µM
same,TGI,OVCAR-5 ovarian,> 100 µM
same,GI50,NCI-H522 lung,2.8 µM
same,TGI,NCI-H522 lung,> 100 µM
same,GI50,NCI-H460 lung,4.17 µM
same,TGI,NCI-H460 lung,> 100 µM
same,GI50,SNB-19 CNS,4.37 µM
same,TGI,SNB-19 CNS,> 100 µM
same,GI50,UO-31 renal,2.14 µM
same,TGI,UO-31 renal,> 100 µM
N#CC1=C(c2ccco2)Nc2c(c(-c3ccccc3)nn2-c2ccccc2)C12C(=O)Nc1ccc(Cl)cc12 (configuration not stated),GI50,HS 578T breast,12.6 µM
same,TGI,HS 578T breast,40.9 µM
same,GI50,HOP-62 NSCLC,14.8 µM
same,TGI,HOP-62 NSCLC,28.9 µM
same,GI50,MOLT-4 leukemia,6.05 µM
same,TGI,MOLT-4 leukemia,91.2 µM
same,GI50,MDA-MB-435,34.8 µM
same,TGI,MDA-MB-435,> 100 µM
same,GI50,LOX IMVI melanoma,19.2 µM
same,TGI,LOX IMVI melanoma,47.1 µM
same,GI50,ACHN renal,18.1 µM
same,TGI,ACHN renal,61 µM
same,GI50,SF-539 CNS,17.9 µM
same,TGI,SF-539 CNS,40.6 µM
same,GI50,SF-295 CNS,16.9 µM
same,TGI,SF-295 CNS,56.3 µM
same,GI50,IGROV1 ovarian,16.3 µM
same,TGI,IGROV1 ovarian,38.4 µM
same,GI50,CCRF-CEM leukemia,49.7 µM
same,TGI,CCRF-CEM leukemia,> 100 µM
same,GI50,UACC-257 melanoma,16.6 µM
same,TGI,UACC-257 melanoma,41.4 µM
same,GI50,NCI-H23 lung,15.5 µM
same,TGI,NCI-H23 lung,32.4 µM
same,GI50,SF-268 CNS,17.8 µM
same,TGI,SF-268 CNS,90.1 µM
same,GI50,HCC-2998 colon,19.2 µM
same,TGI,HCC-2998 colon,58.9 µM
same,GI50,NCI-H226 lung,17.5 µM
same,TGI,NCI-H226 lung,50.2 µM
same,GI50,SN12C renal,17 µM
same,TGI,SN12C renal,36.7 µM
same,GI50,RXF 393 renal,13.2 µM
same,TGI,RXF 393 renal,29.9 µM
same,GI50,BT-549 breast,12.2 µM
same,TGI,BT-549 breast,28.2 µM
same,GI50,DU-145 prostate,19.4 µM
same,TGI,DU-145 prostate,43.9 µM
same,GI50,T-47D breast,19.5 µM
same,TGI,T-47D breast,> 100 µM
same,GI50,K-562 leukemia,16.6 µM
same,TGI,K-562 leukemia,> 100 µM
same,GI50,MALME-3M melanoma,14.7 µM
same,TGI,MALME-3M melanoma,29.8 µM
same,GI50,U251 CNS,13.3 µM
same,TGI,U251 CNS,29.2 µM
same,GI50,MCF7 breast,15.7 µM
same,TGI,MCF7 breast,49.7 µM
same,GI50,A498 renal,14.5 µM
same,TGI,A498 renal,30.9 µM
same,GI50,CAKI-1 renal,29.5 µM
same,TGI,CAKI-1 renal,> 100 µM
same,GI50,SK-MEL-28 melanoma,15.5 µM
same,TGI,SK-MEL-28 melanoma,33 µM
same,GI50,HOP-92 NSCLC,12.8 µM
same,TGI,HOP-92 NSCLC,28.5 µM
same,GI50,M14 melanoma,15 µM
same,TGI,M14 melanoma,32.7 µM
same,GI50,SR leukemia,23.3 µM
same,TGI,SR leukemia,> 100 µM
same,GI50,OVCAR-3 ovarian,20.4 µM
same,TGI,OVCAR-3 ovarian,61 µM
same,GI50,KM12 colon,49.5 µM
same,TGI,KM12 colon,> 100 µM
same,GI50,COLO 205 colon,14.7 µM
same,TGI,COLO 205 colon,29.7 µM
same,GI50,HCT-15 colon,19.6 µM
same,TGI,HCT-15 colon,> 100 µM
same,GI50,SK-MEL-5 melanoma,18 µM
same,TGI,SK-MEL-5 melanoma,41.8 µM
same,GI50,HCT-116 colon,13.1 µM
same,TGI,HCT-116 colon,26 µM
same,GI50,NCI/ADR-RES ovarian,14.8 µM
same,TGI,NCI/ADR-RES ovarian,30 µM
same,GI50,786-0 renal,16.2 µM
same,TGI,786-0 renal,56 µM
same,GI50,PC-3 prostate,12 µM
same,TGI,PC-3 prostate,28 µM
same,GI50,TK-10 renal,15 µM
same,TGI,TK-10 renal,30.6 µM
same,GI50,SK-OV-3 ovarian,15.8 µM
same,TGI,SK-OV-3 ovarian,33.9 µM
same,GI50,RPMI-8226 leukemia,18.7 µM
same,TGI,RPMI-8226 leukemia,> 100 µM
same,GI50,EKVX NSCLC,16.5 µM
same,TGI,EKVX NSCLC,66 µM
same,GI50,A549 NSCLC,11.6 µM
same,TGI,A549 NSCLC,25.1 µM
same,GI50,SW-620 colon,30.3 µM
same,TGI,SW-620 colon,> 100 µM
same,GI50,OVCAR-8 ovarian,15.7 µM
same,TGI,OVCAR-8 ovarian,30.7 µM
same,GI50,HL-60(TB) leukemia,15 µM
same,TGI,HL-60(TB) leukemia,> 100 µM
same,GI50,UACC-62 melanoma,11.4 µM
same,TGI,UACC-62 melanoma,28.2 µM
same,GI50,MDA-MB-468 breast,19 µM
same,TGI,MDA-MB-468 breast,64.7 µM
same,GI50,HT29 colon,14.6 µM
same,TGI,HT29 colon,30.2 µM
same,GI50,OVCAR-4 ovarian,15.4 µM
same,TGI,OVCAR-4 ovarian,33.3 µM
same,GI50,OVCAR-5 ovarian,23.8 µM
same,TGI,OVCAR-5 ovarian,> 100 µM
same,GI50,NCI-H522 lung,14.5 µM
same,TGI,NCI-H522 lung,38.8 µM
same,GI50,NCI-H460 lung,14.1 µM
same,TGI,NCI-H460 lung,31.8 µM
same,GI50,SNB-19 CNS,17.4 µM
same,TGI,SNB-19 CNS,46 µM
